In US11246907B2, “Immunosuppressive agents and their use in therapy” (Norwegian University of Science and Technology, priority 2013, dated 2022):
Ends that are not written are not given here.

How the values were obtained:
[1] = test system: peripheral blood monocytes; assay: Multiplex (27-plex) cytokine secretion of TLR-ligand stimulated peripheral blood monocytes; type: cell-based, human; details: 4 h
Description: (§1) Measured cytokine levels were normalized to cytokine levels from monocytes stimulated with TLR ligand alone. A two fold or higher increase in cytokine level after TLR stimulation was defined as cytokine induction. […] Isolated monocytes were stimulated with 10 ng/ml LPS and 40 μg/ml polyIC alone and in combination with 4 μM ATX-101 for 4 h. […] DRAQS was used for nuclear staining. Bar, 5 μm.
(§2) Data is from one representative donor out of three; and (B-E) show multiplex analysis of cytokine levels produced by peripheral blood monocytes stimulated with 10 ng/ml LPS (B and D, same donor) and 40 μg/ml polyIC (C and E, same donor) after 4 h. (B and C) Stimulated-monocytes were treated with 4 μM ATX-101, 10 μM SB203580 (p38 MAPK inhibitor), and combination of ATX-101 and SB203580. (D and E) Stimulated-monocytes were treated with 4 μM ATX-101, 5 and 10 μM LY294002 (PI3K class I inhibitor), and combination of ATX-101 and LY294002. Measured cytokine levels were normalized to cytokine levels from monocytes stimulated with TLR ligand alone. A two fold or higher increase in cytokine level after TLR stimulation was defined as cytokine induction. # Value is too low to be visible in the column diagram; ? cytokine measurement was out of range. Data is from representative experiments out of two.
(§3) Measured cytokine levels were normalized to cytokine levels from monocytes stimulated with TLR ligand alone. A two fold or higher increase in cytokine level after TLR stimulation was defined as cytokine induction. ? Cytokine measurement was out of range. Data is from one experiment out of two.
Measured cytokine levels were normalized to cytokine levels from monocytes stimulated with TLR ligand alone. Data is from one donor. We obtained similar results for IL-6 secretion in two other donors.
as §3, with “# Value is too low to be visible in the column diagram; 0” for “?”
Peripheral blood mononuclear cells were isolated from A+ buffy coats (Blood Bank, St. Olav's University Hospital, Trondheim, Norway) by density gradient centrifugation (Lymphoprep; Axis-Shield PoC, Oslo, Norway). Mononucleated cells were seeded at 4 million cells/ml in serum-free RPMI 1640 supplemented with glutamine and gentamicin. After 60-90 min the adherent cell population was washed before cultured in medium with 10% heat-inactivated human serum (Blood Bank, St. Olav's University Hospital). ATX-101 (4 μM [Innovagen, Lund, Sweden]), ATX-A (4 μM, [Innovagen]) (ATX-A is represented in SEQ ID NO: 1206 and contains the motif RALVK (SEQ ID NO: 1207), which is not capable of interacting with PCNA), p38 inhibitor (SB203580, 10 μM, [Sigma-Aldrich]), PI3K inhibitor (LY294002, 5 and 10 μM, [Sigma-Aldrich]), and Akt inhibitor (Akt inhibitor XVIII SC66, 1 μg/ml, [Sigma-Aldrich]) were added in serum-free medium and incubated for 5 min before LPS (10 ng/ml, [Sigma-Aldrich]), polylC (40 μg/ml, [GE Healthcare, Little Chalfont, UK]), PAM3Cys (10 ng/ml, [Invivogen, San Diego, Calif., USA]) or R848 (10 μg/ml, [Invivogen]) were added in serum-containing medium. The cells were incubated for 4 h before the supernatants were harvested and frozen prior to further cytokine analysis by the 27-plex assay (Bio-Plex ProTM Human cytokine 27-plex assay).

[2] = test system: Akt Ser473 phosphorylation; assay: Western blot of Akt Ser473 phosphorylation in peripheral blood monocytes; type: cell-based, human; details: 4 μM ATX-101, 4 h
Description: as §2
Mononucleated cells were seeded and stimulated as described above. JJN-3 cells were treated with ATX-101 (6 μM) for 4 h. HaCaT cells were treated with ATX-101 (12 μM), polylC (2 μg/ml), and LPS (100 ng/ml) for 4 h. […] The proteins were visualized with the Odyssey infrared imaging system (LI-COR) and quantified using Odyssey Image Studio V2. […]

[3] = test system: p70 S6 kinase Thr389 phosphorylation; assay: Western blot of p70 S6 kinase Thr389 phosphorylation in JJN-3 cells; type: cell-based; details: 6 μM ATX-101, 4, 8, 24 h
IFN-β = IFN-β ELISA on supernatants of stimulated monocytes; type: cell-based, human; details: LPS- and polyIC-stimulated monocytes; 4 μM (donor 1: 6 μM), 4 h
Description: as §1
Peripheral blood mononuclear cells were isolated from A+ buffy coats (Blood Bank, St. Olav's University Hospital, Trondheim, Norway) by density gradient centrifugation (Lymphoprep; Axis-Shield PoC, Oslo, Norway). Mononucleated cells were seeded at 4 million cells/ml in serum-free RPMI 1640 supplemented with glutamine and gentamicin. […]
Monocytes were stimulated as described above. IFN-β was measured in supernatants with the VeriKine-HSTMHuman IFN-β Serum ELISA kit (Pestka Biomedical Laboratories, Piscataway, N.J., USA) according to the manufacturer's instructions with the following adaptions: the amount of supernatant was doubled from 50 to 100 μl; sample buffer was reduced from 50 to 25 μl; and antibody solution was reduced from 50 to 25 μl (reducing assay diluent, keeping same volume of antibody concentrate and diluent additive). The OD was measured at 450 nm.

Ac-MDRWLVKWKKKRKIRRRRRRRRRRR [ATX-101]
cytokine secretion, combination of ATX-101 and p38 MAPK inhibitor ([1]; LPS or polyIC, 4 μM ATX-101 + 10 μM SB203580): increased reduction of most cytokines
cytokine secretion, combination of ATX-101 and PI3K inhibitor LY294002 ([1]; LPS or polyIC, 4 μM ATX-101 + 5 and 10 μM LY294002): reduction in the secretion of some cytokines
cytokine secretion from stimulated monocytes, single agent ([1]; LPS or polyIC, ATX-101 4 μM, SB203580 10 μM, LY294002 5 and 10 μM, SC66 1 μg/ml): reduced cytokine secretion
basal level production of CXCL10 ([1]; isolated monocytes, 4 μM): decreased
basal level of IL-12 ([1]; monocytes, 4 μM): reduced the basal level of IL-12
secretion of LPS-induced cytokines ([1]; monocytes, 4 μM, 10 ng/ml LPS): efficiently reduced
secretion of CXCL10, CCL2, CCL3 and CCL4 after TLR3 stimulation with polyIC ([1]; monocytes, 4 μM, 40 μg/ml polyIC): reduced the secretion of CXCL10, CCL2, CCL3, and CCL4
LPS- and polyIC-induced and basal Akt phosphorylation [2]: reduced
phosphorylation of p70 S6 kinase [3]: decreased
IFN-β secretion (IFN-β): decreased the IFN-β secretion
